The source of these data is patent publication US9856254B2, “Alkoxy substituted imidazoquinolines” (3M INNOVATIVE PROPERTIES COMPANY, priority 2003, dated 2018).

Molecules are shown by their SMILES. Values joined by “and” are separate entries in the source; they are usually repeats but may differ in a detail not shown here. Equal entries are not always repeated. Structures can show the parent of a compound that is named as a salt. Bounds are passed on as bounds.

The melting point is the temperature, or range, at which the solid turns liquid. As to `CCOCc1nc2c(N)nc3cc(OC4CCNCC4)ccc3c2n1CC(O)CO` (stereo not drawn) (as salt: hydrochloride), the melting point was in the range of 278 to 280 °C.
In turn, `CCCn1c(COCC)nc2c(N)nc3ccc(OCCNC(=O)N4CCOCC4)cc3c21` (as salt: hydrochloride) [Example 4, N-(2-{[4-Amino-2-(ethoxymethyl)-1-propyl-1H-imidazo[4,5-c]quinolin-8-yl]oxy}ethyl)morpholine-4-carboxamide] returned a melting point of 200 to 202 °C.
Regarding `CCCn1c(COCC)nc2c(N)nc3ccc(OCCNC(=O)C(C)C)cc3c21` (as salt: hydrochloride) [Example 5, N-(2-{[4-Amino-2-(ethoxymethyl)-1-propyl-1H-imidazo[4,5-c]quinolin-8-yl]oxy}ethyl)-2-methylpropanamide hydrochloride], the melting point is 240 to 242 °C.
`CCOCc1nc2c(N)nc3cc(OCCN)ccc3c2n1CC(O)CO` (stereo not drawn) (as salt: hydrochloride) [Example 373, 3-[4-Amino-7-(2-aminoethoxy)-2-(ethoxymethyl)-1H-imidazo[4,5-c]quinolin-1-yl]propane-1,2-diol dihydrochloride] came in with a melting point of 221 to 223 °C.
In turn, `CCOCc1nc2c(N)nc3cc(OCCCN4CCCC4=O)ccc3c2n1CCCCN` (as salt: hydrochloride) [Example 398, 1-(3-{[4-Amino-1-(4-aminobutyl)-2-(ethoxymethyl)-1H-imidazo[4,5-c]quinolin-7-yl]oxy}propyl)pyrrolidin-2-one dihydrochloride] had a melting point of more than 250 °C.
Under `CCc1nc2c(N)nc3cc(OS(C)(=O)=O)ccc3c2n1CCOc1ccccc1` (as salt: methanesulfonate) [Example 367, 4-Amino-2-ethyl-1-(2-phenoxyethyl)-1H-imidazo[4,5-c]quinolin-7-yl methanesulfonate] stands 213 to 214.5 °C; under `CCCCc1nc2c(N)nc3ccc(OCCCCC(=O)N4CCOCC4)cc3c2n1C` (as salt: trifluoroacetate) [Example 31, 2-Butyl-1-methyl-8-[(5-morpholin-4-yl-5-oxopentyl)oxy]-1H-imidazo[4,5-c]quinolin-4-amine trifluoroacetate], 155.5 to 156.2 °C.
For the compound `CCCc1nc2c(N)nc3cc(OCC(=O)c4ccccc4)ccc3c2n1CC(C)C` [Example 1, 2-(4-Amino-1-(2-methylpropyl)-2-propyl-1H-imidazo[4,5-c]quinolin-7-yloxy)-1-phenylethanone], the melting point fell in the range of 178 to 180 °C.
Under `CCCn1c(COCC)nc2c(N)nc3ccc(OCCN)cc3c21` [Example 2, 8-(2-Aminoethoxy)-2-ethoxymethyl-1-propyl-1H-imidazo[4,5-c]quinolin-4-amine] stands 157 to 159 °C; under `CCCn1c(COCC)nc2c(N)nc3ccc(OCCNS(C)(=O)=O)cc3c21` [Example 3, N-[2-(4-Amino-2-ethoxymethyl-1-propyl-1H-imidazo[4,5-c]quinolin-8-yloxy)ethyl]methanesulfonamide], 178 to 179.5 °C and 182 to 184.5 °C; under `CCCn1c(COCC)nc2c(N)nc3ccc(OCCNC(=O)N4CCOCC4)cc3c21` [Example 4, N-(2-{[4-Amino-2-(ethoxymethyl)-1-propyl-1H-imidazo[4,5-c]quinolin-8-yl]oxy}ethyl)morpholine-4-carboxamide], 203 to 208 °C.
Under `CCCn1c(COCC)nc2c(N)nc3ccc(OCCNC(=O)C4CCCO4)cc3c21` (stereo not drawn) [Example 6, N-(2-{[4-Amino-2-(ethoxymethyl)-1-propyl-1H-imidazo[4,5-c]quinolin-8-yl]oxy}ethyl)tetrahydrofuran-2-carboxamide] stands 202.5 to 204.5 °C; under `CCCc1nc2c(N)nc3cc(OCCCNC(=O)OC(C)(C)C)ccc3c2n1CC(C)C` [Example 7, tert-Butyl 3-{[4-amino-1-(2-methylpropyl)-2-propyl-1H-imidazo[4,5-c]quinolin-7-yl]oxy}propylcarbamate], 162.5 to 164 °C.
`CCCc1nc2c(N)nc3cc(OCCCN)ccc3c2n1CC(C)C` [Example 8, 7-(3-Aminopropoxy)-1-(2-methylpropyl)-2-propyl-1H-imidazo[4,5-c]quinolin-4-amine] registered a melting point of 173 to 174 °C.
Take `Cc1nc2c(N)nc3cc(OCCNC(=O)OC(C)(C)C)ccc3c2n1CC(C)C` [Example 9, tert-Butyl 2-{[4-amino-2-methyl-1-(2-methylpropyl)-1H-imidazo[4,5-c]quinolin-7-yl]oxy}ethylcarbamate]: the melting point was in the range of 226.9 to 228.2 °C.
With `CCCc1nc2c(N)nc3cc(OCCCNS(C)(=O)=O)ccc3c2n1CC(C)C` [Example 11, N-{3-[4-Amino-1-(2-methylpropyl)-2-propyl-1H-imidazo[4,5-c]quinolin-7-yloxy]propyl}methanesulfonamide], the melting point was in the range of 166.5 to 168.5 °C.
With `CCCc1nc2c(N)nc3cc(OCCCN4CCCS4(=O)=O)ccc3c2n1CC(C)C` [Example 13, 7-[3-(1,1-Dioxidoisothiazolidin-2-yl)propoxy]-1-(2-methylpropyl)-2-propyl-1H-imidazo[4,5-c]quinolin-4-amine], the melting point lay in the range of 142 to 144 °C.
For the compound `CCCc1nc2c(N)nc3cc(OCCCNS(=O)(=O)CCc4cccc5ccccc45)ccc3c2n1CC(C)C` [Example 14, N-(3-{[4-Amino-1-(2-methylpropyl)-2-propyl-1H-imidazo[4,5-c]quinolin-7-yl]oxy}propyl)-2-(1-naphthyl)ethanesulfonamide], the melting point lay within 164 to 168 °C.
`CCCc1nc2c(N)nc3cc(OCCCNC(=O)C(C)C)ccc3c2n1CC(C)C` [Example 15, N-{3-[4-Amino-1-(2-methylpropyl)-2-propyl-1H-imidazo[4,5-c]quinolin-7-yloxy]propyl}-2-methylpropanamide] showed a melting point of 179 to 181 °C.
Compound `CCCc1nc2c(N)nc3cc(OCCCNC(=O)c4cccnc4)ccc3c2n1CC(C)C` [Example 16, N-{3-[4-Amino-1-(2-methylpropyl)-2-propyl-1H-imidazo[4,5-c]quinolin-7-yloxy]propyl}nicotinamide] yielded a melting point of 172 to 174 °C.
For `Cc1nc2c(N)nc3cc(OCCNC(=O)C(C)C)ccc3c2n1CC(C)C` [Example 17, N-{2-[4-Amino-2-methyl-1-(2-methylpropyl)-1H-imidazo[4,5-c]quinolin-7-yloxy]ethyl}-2-methylpropanamide], the melting point was 205 to 206 °C.
In the case of `CCCc1nc2c(N)nc3cc(OCCN4CCCC4=O)ccc3c2n1CC(C)C` [Example 18, 1-{2-[4-Amino-1-(2-methylpropyl)-2-propyl-1H-imidazo[4,5-c]quinolin-7-yloxy]ethyl}pyrrolidin-2-one], the melting point was in the range of 206 to 208 °C.
Consider `Cc1nc2c(N)nc3cc(OCCNC(=O)N4CCOCC4)ccc3c2n1CC(C)C` [Example 19, N-(2-{[4-Amino-2-methyl-1-(2-methylpropyl)-1H-imidazo[4,5-c]quinolin-7-yl]oxy}ethyl)morpholine-4-carboxamide], for which the melting point is 215 to 219 °C (dec.).
`CCCc1nc2c(N)nc3cc(OCCCNC(=O)N4CCOCC4)ccc3c2n1CC(C)C` [Example 20, N-(3-{[4-Amino-2-propyl-1-(2-methylpropyl)-1H-imidazo[4,5-c]quinolin-7-yl]oxy}propyl)morpholine-4-carboxamide] gave a melting point of 145 °C.
